Experimental data: ChEMBL document CHEMBL5390237, “Discovery of Selective Histone Deacetylase 1 and 2 Inhibitors: Screening of a Focused Library Constructed by Click Chemistry, Kinetic Binding Analysis, and Biological Evaluation” (J Med Chem, 2023)

Each molecule was assayed against T1, Histone deacetylase 2 (Homo sapiens, UniProt Q92769) (assay: Inhibition of full-length recombinant human C-terminal GST tagged HDAC2 expressed in Sf9 insect cells using aminoluciferin peptide substrate at 100 nM preincubated for 3 hrs followed by substrate addition and measured after 30 mins by HDAC-Glo I/II chemiluminescence assay). Conditions: time 3.5 hrs.
T1 sequence (Q92769 whole entry): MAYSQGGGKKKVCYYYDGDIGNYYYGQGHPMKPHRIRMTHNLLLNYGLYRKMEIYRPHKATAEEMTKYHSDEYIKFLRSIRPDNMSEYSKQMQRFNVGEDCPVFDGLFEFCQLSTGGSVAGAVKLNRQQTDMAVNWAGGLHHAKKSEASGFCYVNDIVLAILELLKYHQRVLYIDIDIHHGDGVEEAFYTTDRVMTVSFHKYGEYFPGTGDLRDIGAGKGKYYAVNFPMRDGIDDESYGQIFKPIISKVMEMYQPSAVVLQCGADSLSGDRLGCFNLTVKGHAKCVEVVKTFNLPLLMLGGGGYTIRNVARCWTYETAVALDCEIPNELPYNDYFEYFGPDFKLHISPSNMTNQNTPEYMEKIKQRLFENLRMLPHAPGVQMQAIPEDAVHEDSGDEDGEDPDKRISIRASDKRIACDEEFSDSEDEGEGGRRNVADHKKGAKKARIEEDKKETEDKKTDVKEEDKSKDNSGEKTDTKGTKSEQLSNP

Point of comparison: Nc1ccc(-c2cccs2)cc1NC(=O)c1cn(CCCCCCC(=O)O)nn1, inhibition 7%. Against it:
- Nc1ccc(-c2ccccc2)cc1NC(=O)c1cn(CCc2ccc(-c3ccccc3)cc2)nn1 — lower, 0%
- Nc1ccc(-c2ccsc2)cc1NC(=O)c1cn(CCC23CC4CC(CC(C4)C2)C3)nn1 — lower, 0%
- Nc1ccc(-c2cccs2)cc1NC(=O)c1cn(Cc2ccc(Oc3ccccc3)cc2)nn1 — lower, 0%
- Nc1ccc(-c2ccccc2)cc1NC(=O)CCc1cn(Cc2cccc(-c3ccccc3)c2)nn1 — lower, 0%
- Cc1csc(CCn2cc(C(=O)Nc3cc(-c4ccccc4)ccc3N)nn2)n1 — lower, 0%
- Nc1ccc(-c2cccs2)cc1NC(=O)c1ccc(-c2cn(CC(=O)Nc3ccc(F)cc3)nn2)s1 — higher, 23%
- Nc1ccc(-c2ccc(F)cc2)cc1NC(=O)CCc1cn(CCN2CCc3ccccc3C2)nn1 — higher, 18%
- Nc1ccc(-c2ccc(F)cc2)cc1NC(=O)c1cn(-c2ccc(O)cc2)nn1 — higher, 15%
- Nc1ccc(-c2cccs2)cc1NC(=O)c1ccc(-c2cn(CCC3CCCCC3)nn2)cc1 — the same, 7%
- Nc1ccc(-c2cccnc2)cc1NC(=O)CCc1cn(Cc2ccc(OC(F)(F)F)cc2)nn1 — lower, 3%
- Cc1ccc(-n2cc(CCC(=O)Nc3cc(-c4cccs4)ccc3N)nn2)cc1C — lower, 0%
- Nc1ccc(-c2ccc(F)cc2)cc1NC(=O)CCc1cn(CCCc2ccccc2)nn1 — higher, 12%
- Nc1ccc(-c2ccc(F)cc2)cc1NC(=O)CCc1cn(Cc2ccc3ccccc3c2)nn1 — higher, 15%
- Nc1ccc(-c2ccsc2)cc1NC(=O)c1cn(Cc2ccc(-c3ccccc3)cc2)nn1 — lower, 0%
- Nc1ccc(-c2ccccc2)cc1NC(=O)c1cn(CC2CCCCC2)nn1 — lower, 0%
- Nc1ccc(-c2ccsc2)cc1NC(=O)c1cn(CCN2CCc3ccccc3C2)nn1 — higher, 18%
- Nc1ccc(-c2cccs2)cc1NC(=O)CCc1cn(CCCCCc2ccccc2)nn1 — the same, 7%
- Nc1ccc(-c2ccc(F)cc2)cc1NC(=O)c1cn(Cc2cccc3ccccc23)nn1 — higher, 8%
- Nc1ccc(-c2ccsc2)cc1NC(=O)c1cn(-c2ccc(O)cc2)nn1 — lower, 2%
- Nc1ccc(-c2cccs2)cc1NC(=O)CCc1cn(Cc2ccc(Oc3ccccc3)cc2)nn1 — lower, 6%
- Nc1ccc(-c2cccs2)cc1NC(=O)CCc1cn(CCN2CCc3ccccc3C2)nn1 — higher, 14%
- Nc1ccc(-c2cccs2)cc1NC(=O)c1cccc(-c2cn(Cc3cccc(C(=O)O)c3)nn2)c1 — higher, 17%
- Nc1ccc(-c2cccs2)cc1NC(=O)c1cccc(-c2cn(Cc3ccc(-c4ccccc4)cc3)nn2)c1 — lower, 0%
- Cc1cccc(C)c1NC(=O)Cn1cc(-c2cccc(C(=O)Nc3cc(-c4cccs4)ccc3N)c2)nn1 — higher, 8%
- Nc1ccc(-c2cccnc2)cc1NC(=O)CCc1cn(CCc2ccc([N+](=O)[O-])cc2)nn1 — lower, 3%
- Nc1ccc(-c2ccsc2)cc1NC(=O)CCc1cn(CCCCCc2ccccc2)nn1 — lower, 5%
- Nc1ccc(-c2cccs2)cc1NC(=O)c1cn(CCc2ccsc2)nn1 — lower, 0%
- Nc1ccc(-c2cccs2)cc1NC(=O)c1cccc(-c2cn(CCCCC(=O)O)nn2)c1 — higher, 48%
- Cc1ccc(CCn2cc(C(=O)Nc3cc(-c4ccsc4)ccc3N)nn2)cc1 — higher, 8%
- Nc1ccc(-c2cccnc2)cc1NC(=O)CCc1cn(Cc2ccc(C(=O)O)cc2)nn1 — the same, 7%
- Cc1ccc(-n2cc(C(=O)Nc3cc(-c4cccs4)ccc3N)nn2)cc1C — lower, 0%
- Nc1ccc(-c2ccc(F)cc2)cc1NC(=O)CCc1cn(Cc2cccc3ccccc23)nn1 — higher, 14%
- Nc1ccc(-c2cccs2)cc1NC(=O)CCc1cn(Cc2ccc(-c3ccccc3)cc2)nn1 — lower, 0%
- Nc1ccc(-c2ccsc2)cc1NC(=O)c1cn(CCCCCCCC(=O)O)nn1 — higher, 10%
- Nc1ccc(-c2cccs2)cc1NC(=O)c1cn(CCc2cccc3ccccc23)nn1 — lower, 0%
- Nc1ccc(-c2ccsc2)cc1NC(=O)c1cn(CCc2cccc([N+](=O)[O-])c2)nn1 — lower, 1%
- Cc1csc(CCn2cc(CCC(=O)Nc3cc(-c4ccccc4)ccc3N)nn2)n1 — higher, 29%
- Nc1ccc(-c2ccccc2)cc1NC(=O)CCc1cn(CCc2cccc3ccccc23)nn1 — lower, 0%
- Nc1ccc(-c2ccsc2)cc1NC(=O)CCc1cn(Cc2ccc(-c3ccccc3)cc2)nn1 — lower, 0%
- Cc1cccc(C)c1NC(=O)Cn1cc(C(=O)Nc2cc(-c3cccs3)ccc2N)nn1 — higher, 21%
- Nc1ccc(-c2ccc(F)cc2)cc1NC(=O)c1cn(CCc2cccc(Cl)c2)nn1 — lower, 0%
- Nc1ccc(-c2ccc(F)cc2)cc1NC(=O)c1cn(CCc2ccc(C(F)(F)F)cc2)nn1 — lower, 0%
- Nc1ccc(-c2ccccc2)cc1NC(=O)c1cn(Cc2cccc3ccccc23)nn1 — lower, 2%
- Nc1ccc(-c2ccsc2)cc1NC(=O)c1cn(Cc2cccc3ccccc23)nn1 — lower, 4%
- Nc1ccc(-c2ccsc2)cc1NC(=O)CCc1cn(CCc2ccc(C(F)(F)F)cc2)nn1 — lower, 2%
- Nc1ccc(-c2ccsc2)cc1NC(=O)CCc1cn(CCc2ccccn2)nn1 — higher, 12%
- Nc1ccc(-c2ccccc2)cc1NC(=O)CCc1cn(CC23CC4CC(CC(C4)C2)C3)nn1 — lower, 0%
- Nc1ccc(-c2cccs2)cc1NC(=O)c1ccc(-c2cn(CCc3ccccc3C(F)(F)F)nn2)cc1 — lower, 0%
- Nc1ccc(-c2cccs2)cc1NC(=O)c1cccc(-c2cn(C[S+]([O-])c3ccccc3)nn2)c1 (centres undefined) — lower, 6%
- Nc1ccc(-c2ccsc2)cc1NC(=O)CCc1cn(-c2ccc(Br)cc2)nn1 — lower, 3%
- COc1ccc(Cn2cc(C(=O)Nc3cc(-c4ccc(F)cc4)ccc3N)nn2)cc1 — higher, 19%
- Nc1ccc(-c2cccs2)cc1NC(=O)c1cn(-c2ccc([N+](=O)[O-])cc2)nn1 — lower, 0%
- Nc1ccc(-c2ccccc2)cc1NC(=O)c1cn(CC23CC4CC(CC(C4)C2)C3)nn1 — lower, 0%
- Nc1ccc(-c2cccnc2)cc1NC(=O)CCc1cn(CC(=O)c2ccccc2)nn1 — lower, 3%
- Nc1ccc(-c2ccc(F)cc2)cc1NC(=O)CCc1cn(Cc2cccc(-c3ccccc3)c2)nn1 — lower, 0%
- Nc1ccc(-c2cccs2)cc1NC(=O)c1ccc(-c2cn(CCCc3ccccc3)nn2)cc1 — lower, 2%
- Cc1ccc(CCn2cc(CCC(=O)Nc3cc(-c4ccsc4)ccc3N)nn2)cc1 — higher, 24%
- Nc1ccc(-c2ccc(F)cc2)cc1NC(=O)c1cn(CC23CC4CC(CC(C4)C2)C3)nn1 — lower, 0%
- COc1ccc(Cn2cc(C(=O)Nc3cc(-c4ccccc4)ccc3N)nn2)cc1 — lower, 6%
- Nc1ccc(-c2ccsc2)cc1NC(=O)CCc1cn(CCCCCC(=O)O)nn1 — lower, 0%
- Nc1ccc(-c2cccs2)cc1NC(=O)c1ccc(-c2cn(CCc3ccccc3Cl)nn2)cc1 — lower, 5%
- Nc1ccc(-c2cccs2)cc1NC(=O)c1cn(-c2ccccc2-c2ccccc2)nn1 — lower, 0%
- Cc1cccc(CCn2cc(-c3cccc(C(=O)Nc4cc(-c5cccs5)ccc4N)c3)nn2)c1 — lower, 5%
- Cc1ccc(CCn2cc(C(=O)Nc3cc(-c4ccccc4)ccc3N)nn2)cc1 — lower, 2%
- Nc1ccc(-c2ccsc2)cc1NC(=O)c1cn(CCc2ccccn2)nn1 — lower, 1%
- Cc1cccc(CCn2cc(CCC(=O)Nc3cc(-c4ccsc4)ccc3N)nn2)c1 — higher, 26%
- Nc1ccc(-c2cccs2)cc1NC(=O)c1cccc(-c2cn(-c3ccc(Br)cc3)nn2)c1 — lower, 0%
- COc1ccc(-n2cc(C(=O)Nc3cc(-c4ccsc4)ccc3N)nn2)cc1 — higher, 22%
- Cc1ccc(-n2cc(CCC(=O)Nc3cc(-c4ccccc4)ccc3N)nn2)cc1C — lower, 0%
- Nc1ccc(-c2cccs2)cc1NC(=O)CCc1cn(C[S+]([O-])c2ccccc2)nn1 (centres undefined) — higher, 17%
- Nc1ccc(-c2cccs2)cc1NC(=O)c1cn(CC2CCCCC2)nn1 — lower, 1%
- Nc1ccc(-c2cccs2)cc1NC(=O)CCc1cn(Cc2ccc3ccccc3c2)nn1 — higher, 30%
- COc1ccc(CCn2cc(C(=O)Nc3cc(-c4ccsc4)ccc3N)nn2)cc1 — lower, 6%
- Nc1ccc(-c2ccsc2)cc1NC(=O)CCc1cn(CCN2CCOCC2)nn1 — lower, 0%
- Nc1ccc(-c2cccs2)cc1NC(=O)c1cccc(-c2cn(Cc3ccc4ccccc4c3)nn2)c1 — lower, 6%
- Cc1ccc(-n2cc(CCC(=O)Nc3cc(-c4ccsc4)ccc3N)nn2)cc1C — lower, 0%
- Nc1ccc(-c2ccsc2)cc1NC(=O)c1cn(CCCCCc2ccccc2)nn1 — lower, 0%
- COc1ccc(-n2cc(-c3ccc(C(=O)Nc4cc(-c5cccs5)ccc4N)cc3)nn2)cc1 — lower, 0%
- Nc1ccc(-c2ccccc2)cc1NC(=O)c1cn(Cc2cccc(C(=O)O)c2)nn1 — lower, 0%
- Nc1ccc(-c2cccs2)cc1NC(=O)c1cn(Cc2ccc(OC(F)(F)F)cc2)nn1 — higher, 14%
- Nc1ccc(-c2cccs2)cc1NC(=O)c1ccc(-c2cn(-c3ccc(O)cc3)nn2)cc1 — higher, 16%
- Nc1ccc(-c2ccc(F)cc2)cc1NC(=O)c1cn(CCC23CC4CC(CC(C4)C2)C3)nn1 — lower, 2%
- Nc1ccc(-c2cccnc2)cc1NC(=O)CCc1cn(CCC2CCCCC2)nn1 — lower, 5%
- Nc1ccc(-c2cccs2)cc1NC(=O)c1ccc(-c2cn(CCCCCCCC(=O)O)nn2)s1 — higher, 14%
- Nc1ccc(-c2ccc(F)cc2)cc1NC(=O)c1cn(CCc2ccccc2Cl)nn1 — lower, 0%
- Nc1ccc(-c2ccccc2)cc1NC(=O)c1cn(Cc2ccc3ccccc3c2)nn1 — lower, 1%
- COc1ccc(CCn2cc(CCC(=O)Nc3cc(-c4cccnc4)ccc3N)nn2)cc1 — higher, 21%
- COc1ccccc1CCn1cc(C(=O)Nc2cc(-c3ccsc3)ccc2N)nn1 — lower, 0%
- Nc1ccc(-c2ccsc2)cc1NC(=O)c1cn(Cc2ccc(C(=O)O)cc2)nn1 — higher, 49%

These molecules were tested against T1, Histone deacetylase 2. Conditions: Sf9, time 60.0 min.

Point of comparison: CC(=O)Nc1ccc(C(=O)Nc2cc(-c3cccs3)ccc2N)cc1, ka 13300 M⁻¹ s⁻¹. Against it:
- Nc1ccccc1NC(=O)c1ccc(CNC(=O)OCc2cccnc2)cc1 — 1.7-fold lower, 7670 M⁻¹ s⁻¹

Molecular target: T1, Histone deacetylase 2
Conditions: Sf9, time 60.0 min
Remark: another data set of the same source

Point of comparison: CC(=O)Nc1ccc(C(=O)Nc2cc(-c3cccs3)ccc2N)cc1, Kdiss 6.67e-05 s⁻¹. Against it:
- Nc1ccccc1NC(=O)c1ccc(CNC(=O)OCc2cccnc2)cc1 — within 1.5-fold, 5e-05 s⁻¹
